Columns and labels:
[1] = tested on: AR; test: Western blot of AR protein in prostate cancer cells; assay type: cell-based; settings: for endogenous AR level (degradation): 48 hrs
Experimental: (§1) FIGS. 10A and 10B. Down-regulation of the expression of AR and its downstream target PSA by SID 3712502 in C4-2 (FIG. 10A) and LNCaP (FIG. 10B) cells. Cells in RPMI 1640 complete medium were treated with SID 3712502 or vehicle DMSO at the indicated concentrations for 48 hrs. The cells were then harvested in RIPA buffer for Western blot analysis using antibodies for AR, PSA, and GAPDH. GAPDH was included as a loading control.
(§2) FIGS. 13A-C. Effect of SID 3712502 on the expression of AR and PSA in 22Rv1 (FIG. 13A) cells. […] The cells in RPMI 1640 complete medium were treated with SID 3712502 or vehicle DMSO at the indicated concentrations (uM) for 48 h. The cells were then harvested in RIPA buffer for Western blot analysis using antibodies for AR, PSA, and GAPDH. GAPDH was included as a loading control. FIG. 13B. SID 3712502 inhibits AR transactivation of PSA-luciferase reporter. C4-2 cells were transfected with PSA6.1-Luc, GFP-AR, and pRL-CMV and then treated with indicated doses of SID 3712502 for 24 hours. FIG. 13C. SID 3712502 inhibits transactivation of PSA-luciferase reporter by AR(1-665), which lacks LBD. PC3 cells were transfected with GFP-NAR and PSA6.1 Luc overnight prior to treatment with 10 μM SID 3712502 (SID) or DMSO (C) for 24 hours. For luciferase assays, cells were lysed with passive lysis buffer (Promega) and both Firefly and Renilla luciferase activities were read using a Dual-Luciferase Reporter Assay kit (Promega) on a LmaxII384 luminometer (Molecular Devices). Firefly luciferase values were normalized to Renilla (pRL-CMV) or protein of cell lysates. Plotted values represent averaged normalized Firefly luciferase activities, each performed in triplicate, relative to DMSO control. One-way ANOVA was performed with a Bonferroni's Multiple Comparison posttest *** p<0.0001 (C). Student's t-test was performed; ***p=0.0002 (D).

[2] = tested on: PSA; test: Western blot of AR target PSA in prostate cancer cells; assay type: cell-based
Experimental: as §1
as §2, with “PC3 cells were transfected with GFP-NAR and PSA6.1 Luc overnight prior to treatment with 10 μM SID 3712502 (SID) or DMSO (C) for 24 hours.” left out, “Firefly luciferase values were normalized to Renilla (pRL-CMV) or protein of cell lysates. Plotted values represent averaged normalized Firefly luciferase activities, each performed in triplicate, relative to DMSO control. One-way ANOVA was performed with a Bonferroni's Multiple Comparison posttest *** p<0.0001 (C). Student's t-test was performed; ***p=0.0002 (D).” left out

[3] = tested on: LAPC4 cells; test: BrdU incorporation, LAPC4; assay type: cell-based; settings: LAPC4, 48 hrs
Experimental: (§3) FIGS. 14A-F. Effect of SID 3712502 at indicated concentrations on BrdU incorporation in cultured AR-positive LNCaP (FIG. 14A), C4-2 (FIG. 14B), 22Rv1 (FIG. 14C), LAPC4 (FIG. 14D) cells, and AR-negative DU145 (FIG. 14E) and PC3 (FIG. 14F) cells. Cells were plated in 12-well plates at 2,500 cell per well in RPMI 1640 complete medium. After 24 hrs, the cells were treated with SID 3712502 at the indicated concentrations for 48 hrs and BrdU incorporation was assayed according to manufacturer's instructions (Invitrogen BrdU staining kit; catalog #: 93-3943). The percentage of BrdU-positive cells was determined and then normalized to generate relative BrdU index. Ctrl=DMSO control.

[4] = tested on: DU145 cells; test: BrdU incorporation, DU145; assay type: cell-based; settings: DU145, up to 50 uM, 48 hrs
Experimental: as §3

[5] = tested on: PC3 cells; test: BrdU incorporation, PC3; assay type: cell-based; settings: PC3, up to 50 uM, 48 hrs
Experimental: as §3

[6] = tested on: PC3 tumors; test: PC3 xenograft tumors in castrated SCID mice; assay type: in vivo; settings: i.p. 25 mg/kg every other day
Experimental: FIGS. 15A-B. SID 3712502 inhibited the growth of castration resistant 22Rv1 xenograft tumors (FIG. 15A), but not PC3 tumors (FIG. 15B). 22Rv1 or PC3 tumors were established by s.c. injection of 1×10^6 cells into young adult male SCID mice. SCID mice were castrated and randomized when tumor volume reached ˜400 uL. Mice received i.p. delivery of SID 3712502 (25 mg/kg body weight) or vehicle control EPL every other day, beginning 4 days after castration (injection indicated by arrows). Each group consisted of 10 mice for 22Rv1, and 8 mice for PC3 tumors. Tumor volumes were measured using micro-calipers and calculated using the formula (length×width^2)/2. Black and red lines represent data from the animals treated with vehicle (C) and SID 3712502 (SID), respectively. P value was calculated using a two-way ANOVA with the Bonferrroni correction (GraphPad). Error bars=SEM. **p<0.01.

[7] = Pilot toxicity experiment in mice; assay type: in vivo; settings: all doses tested, highest 100 mg/kg; data not shown
Experimental: […]. […] A pilot experiment was also performed testing the toxicity of SID 3712502 in mice.

Cc1cccc(N2CCN(C(=O)CSCc3c(C)noc3C)CC2)c1C [SID 3712502, 2-[(3,5-dimethyl-1,2-oxazol-4-yl)methylsulfanyl]-1-[4-(2,3-dimethylphenyl)piperazin-1-yl]ethanone]
AR protein levels ([1]; 10-50 uM, 48 h, C4-2 and 22Rv1 cells): inhibited AR protein levels | endogenous AR level (degradation) ([1]; C4-2 cells): can cause degradation of endogenous AR | endogenous AR level (degradation) ([1]; LNCaP cells): can cause degradation of endogenous AR | AR-target gene PSA expression ([2]; 2 uM, 48 h, C4-2 and 22Rv1 cells): significantly inhibited | PSA expression ([2]; LNCaP cells, 48 hrs): Down-regulation | proliferation (BrdU incorporation) [3]: inhibited the proliferation | proliferation (BrdU incorporation) [4]: no detectable effect | proliferation (BrdU incorporation) [5]: no detectable effect | growth of AR-negative PC3 tumor [6]: did not inhibit | toxicity in mice [7]: no identifiable effect

From patent US10004730B2, “Small molecules targeting androgen receptor nuclear localization and/or level in prostate cancer” (University of Pittsburgh-Of the Commonwealth System of …, priority 2011, dated 2018)
